“And” between values parts separate entries of the source, which are not always exact repeats. Equal entries are not always repeated. The source made the active and inactive calls.
How the values were obtained:
[1] = target: T1, Protein skinhead-1 (Caenorhabditis elegans, UniProt P34707); assay type: functional
T1 sequence (P34707 whole entry): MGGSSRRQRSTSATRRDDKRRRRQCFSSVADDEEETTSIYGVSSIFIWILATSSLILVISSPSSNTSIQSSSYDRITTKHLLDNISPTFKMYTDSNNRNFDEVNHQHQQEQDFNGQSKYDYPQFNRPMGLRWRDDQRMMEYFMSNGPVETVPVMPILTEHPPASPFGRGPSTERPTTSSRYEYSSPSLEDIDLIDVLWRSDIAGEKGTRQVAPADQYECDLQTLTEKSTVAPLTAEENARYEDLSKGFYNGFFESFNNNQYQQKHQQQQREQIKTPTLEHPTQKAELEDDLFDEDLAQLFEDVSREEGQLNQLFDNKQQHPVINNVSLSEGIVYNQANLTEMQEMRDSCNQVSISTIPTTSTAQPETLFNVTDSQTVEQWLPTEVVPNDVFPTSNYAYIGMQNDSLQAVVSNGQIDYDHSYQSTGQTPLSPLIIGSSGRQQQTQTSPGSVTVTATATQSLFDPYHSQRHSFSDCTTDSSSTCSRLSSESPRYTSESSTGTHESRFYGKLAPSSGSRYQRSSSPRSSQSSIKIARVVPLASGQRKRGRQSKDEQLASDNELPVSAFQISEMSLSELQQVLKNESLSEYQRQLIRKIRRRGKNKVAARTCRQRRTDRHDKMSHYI

[2] = target: T2, Histone-lysine N-methyltransferase NSD2 (Homo sapiens, UniProt O96028); assay type: biochemical
T2 sequence (O96028 whole entry): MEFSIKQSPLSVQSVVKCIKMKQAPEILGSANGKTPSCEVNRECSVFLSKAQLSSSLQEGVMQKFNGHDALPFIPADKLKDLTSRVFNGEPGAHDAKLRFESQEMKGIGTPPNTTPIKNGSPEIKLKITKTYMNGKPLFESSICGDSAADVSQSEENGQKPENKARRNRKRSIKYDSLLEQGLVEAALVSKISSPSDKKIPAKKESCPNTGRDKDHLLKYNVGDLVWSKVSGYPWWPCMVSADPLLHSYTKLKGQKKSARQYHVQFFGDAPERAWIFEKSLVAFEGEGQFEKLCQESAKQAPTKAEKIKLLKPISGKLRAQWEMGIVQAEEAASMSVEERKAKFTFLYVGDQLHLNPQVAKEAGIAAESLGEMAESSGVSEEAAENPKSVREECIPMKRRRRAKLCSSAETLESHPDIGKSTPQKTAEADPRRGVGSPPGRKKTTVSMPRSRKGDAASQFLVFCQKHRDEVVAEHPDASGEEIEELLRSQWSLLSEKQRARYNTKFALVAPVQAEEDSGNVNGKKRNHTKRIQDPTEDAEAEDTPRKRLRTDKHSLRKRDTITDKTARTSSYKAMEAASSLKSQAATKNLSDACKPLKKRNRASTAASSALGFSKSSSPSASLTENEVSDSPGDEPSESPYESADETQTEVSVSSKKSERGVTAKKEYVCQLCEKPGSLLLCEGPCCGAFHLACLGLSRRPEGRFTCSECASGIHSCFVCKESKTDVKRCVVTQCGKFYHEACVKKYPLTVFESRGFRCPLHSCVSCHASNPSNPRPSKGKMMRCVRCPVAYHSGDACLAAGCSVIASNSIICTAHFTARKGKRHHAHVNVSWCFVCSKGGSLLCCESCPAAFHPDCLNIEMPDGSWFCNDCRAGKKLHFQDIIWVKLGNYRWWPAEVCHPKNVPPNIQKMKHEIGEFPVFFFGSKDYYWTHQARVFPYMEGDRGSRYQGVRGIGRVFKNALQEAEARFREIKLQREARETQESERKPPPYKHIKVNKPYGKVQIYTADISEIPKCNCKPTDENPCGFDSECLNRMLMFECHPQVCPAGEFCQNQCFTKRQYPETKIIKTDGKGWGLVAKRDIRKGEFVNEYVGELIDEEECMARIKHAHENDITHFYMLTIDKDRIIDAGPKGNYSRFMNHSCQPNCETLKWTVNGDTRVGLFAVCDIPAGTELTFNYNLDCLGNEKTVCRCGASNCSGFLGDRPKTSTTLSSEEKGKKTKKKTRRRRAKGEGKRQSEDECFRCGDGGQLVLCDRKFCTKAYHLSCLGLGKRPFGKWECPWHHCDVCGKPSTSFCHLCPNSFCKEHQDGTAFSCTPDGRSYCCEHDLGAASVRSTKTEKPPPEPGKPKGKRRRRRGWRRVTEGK

[3] = target: T3, fMet-Leu-Phe receptor (Homo sapiens, UniProt P21462); test: FPR ligands, dose response (AID 519); assay type: functional
T3 sequence (P21462 whole entry): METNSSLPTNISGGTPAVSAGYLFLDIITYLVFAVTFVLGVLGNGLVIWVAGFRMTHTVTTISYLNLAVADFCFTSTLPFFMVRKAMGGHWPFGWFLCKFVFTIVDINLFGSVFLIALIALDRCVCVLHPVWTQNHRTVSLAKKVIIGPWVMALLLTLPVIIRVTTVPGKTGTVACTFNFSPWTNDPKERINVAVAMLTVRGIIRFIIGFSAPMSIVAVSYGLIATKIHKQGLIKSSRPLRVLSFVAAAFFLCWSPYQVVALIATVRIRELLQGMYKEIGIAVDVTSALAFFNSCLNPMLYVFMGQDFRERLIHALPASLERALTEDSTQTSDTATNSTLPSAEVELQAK

[4] = target: Cytochrome P450 3A4 (Homo sapiens, UniProt P08684);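 further: CYP3A4 tested as one member of a cytochrome P450 panel screen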
Sequence of Cytochrome P450 3A4 (P08684 whole entry): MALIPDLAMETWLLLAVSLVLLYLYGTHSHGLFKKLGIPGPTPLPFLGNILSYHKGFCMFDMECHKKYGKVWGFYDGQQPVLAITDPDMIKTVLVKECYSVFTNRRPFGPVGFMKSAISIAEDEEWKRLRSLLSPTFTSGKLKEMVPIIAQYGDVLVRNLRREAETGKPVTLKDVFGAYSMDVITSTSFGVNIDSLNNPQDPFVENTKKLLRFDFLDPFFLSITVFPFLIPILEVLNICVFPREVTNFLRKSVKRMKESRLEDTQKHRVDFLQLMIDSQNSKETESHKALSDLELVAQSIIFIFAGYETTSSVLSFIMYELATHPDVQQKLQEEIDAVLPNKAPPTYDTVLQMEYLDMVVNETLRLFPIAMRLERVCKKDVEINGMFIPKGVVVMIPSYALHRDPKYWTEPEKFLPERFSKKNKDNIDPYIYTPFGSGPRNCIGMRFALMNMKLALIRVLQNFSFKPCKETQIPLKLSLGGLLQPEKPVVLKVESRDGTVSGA

[5] = target: T4, DNA repair and recombination protein RAD54-like (Homo sapiens, UniProt Q92698); test: inhibitors of human RAD54 branch migration, confirmation, biochemical, fluorescence, cherry-picked samples, dose series (AID 651657); assay type: functional
T4 sequence (Q92698 whole entry): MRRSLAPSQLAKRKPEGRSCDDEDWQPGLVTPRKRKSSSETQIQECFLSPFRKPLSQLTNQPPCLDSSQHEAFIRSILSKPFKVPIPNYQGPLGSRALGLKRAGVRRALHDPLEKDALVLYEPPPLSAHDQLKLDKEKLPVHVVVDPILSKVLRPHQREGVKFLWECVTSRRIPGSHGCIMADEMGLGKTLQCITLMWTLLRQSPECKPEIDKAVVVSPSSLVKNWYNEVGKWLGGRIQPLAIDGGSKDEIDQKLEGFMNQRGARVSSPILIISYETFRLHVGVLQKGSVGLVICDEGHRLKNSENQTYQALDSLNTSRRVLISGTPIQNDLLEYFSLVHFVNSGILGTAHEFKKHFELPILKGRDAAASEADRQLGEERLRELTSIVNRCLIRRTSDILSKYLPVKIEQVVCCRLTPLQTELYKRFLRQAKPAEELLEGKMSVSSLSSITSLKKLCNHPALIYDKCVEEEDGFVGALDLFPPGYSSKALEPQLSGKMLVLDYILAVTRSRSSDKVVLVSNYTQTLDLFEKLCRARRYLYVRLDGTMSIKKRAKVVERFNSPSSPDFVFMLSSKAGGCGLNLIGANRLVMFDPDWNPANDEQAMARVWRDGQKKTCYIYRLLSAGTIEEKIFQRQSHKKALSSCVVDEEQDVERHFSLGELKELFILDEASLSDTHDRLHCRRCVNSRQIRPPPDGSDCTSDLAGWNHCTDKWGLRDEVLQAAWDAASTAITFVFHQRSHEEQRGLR

[6] = target: T5, Cytochrome P450 1A2 (Homo sapiens, UniProt P05177);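 further: PubChem cytochrome P450 panel assay, CYP1A2 panel member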
T5 sequence (P05177 whole entry): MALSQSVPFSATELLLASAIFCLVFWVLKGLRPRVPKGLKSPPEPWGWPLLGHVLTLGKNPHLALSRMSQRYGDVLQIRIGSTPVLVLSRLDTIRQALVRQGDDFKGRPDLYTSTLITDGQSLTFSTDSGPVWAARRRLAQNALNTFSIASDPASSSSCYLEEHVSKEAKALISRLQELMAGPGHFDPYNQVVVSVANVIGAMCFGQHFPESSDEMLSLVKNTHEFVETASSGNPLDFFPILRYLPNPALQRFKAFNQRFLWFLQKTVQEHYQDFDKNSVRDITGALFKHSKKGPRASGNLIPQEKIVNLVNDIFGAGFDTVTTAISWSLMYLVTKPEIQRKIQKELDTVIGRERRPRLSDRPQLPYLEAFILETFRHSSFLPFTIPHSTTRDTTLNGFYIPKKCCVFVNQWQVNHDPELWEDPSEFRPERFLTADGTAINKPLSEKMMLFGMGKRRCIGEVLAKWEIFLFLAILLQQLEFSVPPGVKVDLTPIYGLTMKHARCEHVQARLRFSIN

[7] = target: T6, Aminopeptidase N (Plasmodium falciparum FcB1/Columbia, UniProt O96935); test: P. falciparum M1AAP inhibitors, biochemical, fluorogenic H-Leu-NHMec substrate, 1536-well (AID 1445); parameters: species or system Plasmodium falciparum 3D7, 3D7
T6 sequence (O96935 whole entry): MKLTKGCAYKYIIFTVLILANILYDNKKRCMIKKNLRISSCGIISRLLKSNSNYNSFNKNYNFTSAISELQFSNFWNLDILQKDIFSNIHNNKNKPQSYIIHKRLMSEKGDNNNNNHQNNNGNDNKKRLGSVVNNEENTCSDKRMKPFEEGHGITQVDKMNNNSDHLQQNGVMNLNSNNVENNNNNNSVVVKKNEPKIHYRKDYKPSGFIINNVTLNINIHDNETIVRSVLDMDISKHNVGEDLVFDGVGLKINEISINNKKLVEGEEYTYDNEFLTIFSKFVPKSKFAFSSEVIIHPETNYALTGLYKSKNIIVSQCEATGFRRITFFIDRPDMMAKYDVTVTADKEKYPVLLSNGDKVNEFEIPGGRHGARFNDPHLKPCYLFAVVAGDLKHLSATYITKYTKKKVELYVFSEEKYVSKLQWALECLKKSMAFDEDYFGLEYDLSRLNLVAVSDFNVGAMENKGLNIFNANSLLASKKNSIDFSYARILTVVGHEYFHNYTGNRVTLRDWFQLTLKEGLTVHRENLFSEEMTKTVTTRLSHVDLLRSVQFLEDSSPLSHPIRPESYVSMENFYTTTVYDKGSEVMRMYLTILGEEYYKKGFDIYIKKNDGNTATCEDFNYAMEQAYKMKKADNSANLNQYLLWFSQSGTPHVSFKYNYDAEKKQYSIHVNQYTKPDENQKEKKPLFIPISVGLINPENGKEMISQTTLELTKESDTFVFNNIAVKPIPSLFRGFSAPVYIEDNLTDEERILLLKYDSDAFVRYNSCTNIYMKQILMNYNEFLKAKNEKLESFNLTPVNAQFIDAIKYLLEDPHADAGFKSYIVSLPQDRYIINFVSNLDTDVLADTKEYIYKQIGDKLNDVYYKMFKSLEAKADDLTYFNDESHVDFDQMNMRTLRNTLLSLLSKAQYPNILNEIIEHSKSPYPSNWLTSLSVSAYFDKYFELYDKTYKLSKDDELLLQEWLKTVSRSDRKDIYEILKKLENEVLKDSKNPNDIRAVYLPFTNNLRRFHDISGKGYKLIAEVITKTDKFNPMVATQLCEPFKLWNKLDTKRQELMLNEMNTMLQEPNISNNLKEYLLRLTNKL

[8] = target: Cytochrome P450 2C19 (Homo sapiens, UniProt P33261); test: Cytochrome panel assay with activity outcomes. Panel member name: p450-cyp2c19 Compounds with AC50 equal or less than 10 uM are considered active; assay type: functional; conditions: read-out: AC50
Sequence of Cytochrome P450 2C19 (P33261 whole entry): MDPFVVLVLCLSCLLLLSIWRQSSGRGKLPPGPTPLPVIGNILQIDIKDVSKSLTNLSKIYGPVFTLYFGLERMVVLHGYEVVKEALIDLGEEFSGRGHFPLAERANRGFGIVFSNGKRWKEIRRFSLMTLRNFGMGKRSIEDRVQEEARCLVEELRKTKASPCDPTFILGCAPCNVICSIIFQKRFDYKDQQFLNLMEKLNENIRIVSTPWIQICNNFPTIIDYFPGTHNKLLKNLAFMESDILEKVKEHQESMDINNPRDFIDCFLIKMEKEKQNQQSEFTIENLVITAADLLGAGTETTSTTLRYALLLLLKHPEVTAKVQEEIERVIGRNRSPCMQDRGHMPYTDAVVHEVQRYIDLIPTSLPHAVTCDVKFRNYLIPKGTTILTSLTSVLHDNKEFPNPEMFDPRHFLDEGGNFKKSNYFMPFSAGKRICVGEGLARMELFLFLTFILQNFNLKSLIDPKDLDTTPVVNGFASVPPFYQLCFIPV

[9] = target: Cytochrome P450 2D6 (Homo sapiens, UniProt P10635);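 further: CYP2D6 member of a cytochrome P450 panel assay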
Sequence of Cytochrome P450 2D6 (P10635 whole entry): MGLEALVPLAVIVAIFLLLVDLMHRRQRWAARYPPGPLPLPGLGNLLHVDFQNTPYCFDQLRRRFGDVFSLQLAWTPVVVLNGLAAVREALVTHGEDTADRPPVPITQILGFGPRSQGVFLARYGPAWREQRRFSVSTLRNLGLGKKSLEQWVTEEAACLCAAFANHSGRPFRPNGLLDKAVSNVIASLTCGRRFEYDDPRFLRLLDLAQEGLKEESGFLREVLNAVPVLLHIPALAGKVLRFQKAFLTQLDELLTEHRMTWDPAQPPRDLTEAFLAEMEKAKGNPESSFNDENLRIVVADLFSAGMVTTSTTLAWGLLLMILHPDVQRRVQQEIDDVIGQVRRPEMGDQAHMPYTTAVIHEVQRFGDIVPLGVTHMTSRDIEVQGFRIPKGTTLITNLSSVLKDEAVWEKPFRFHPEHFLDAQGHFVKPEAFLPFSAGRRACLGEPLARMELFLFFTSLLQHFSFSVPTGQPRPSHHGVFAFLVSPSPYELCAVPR

| IC50 [1] | Ki [3] | SMILES | further results |
| --- | --- | --- | --- |
| 33.5 µM (active) | – | Clc1ccc2oc(SCc3cccnc3)nc2c1 | – |
| – | > 66.7 µM (inactive) | CCSc1nnc(NC(=O)CSc2nnc(Cc3cccn3C)n2CCc2ccccc2)s1 | – |
| – | > 66.7 µM (inactive) | CCOC(=O)CCn1nc(-c2ccc(Cl)cc2)cc1N | – |
| > 100 µM (inactive) | – | O=C(Nc1ccc2nc(-c3ccccc3)oc2c1)c1ccco1 | – |
| > 100 µM (inactive) | – | Cc1nn(C(=O)CCC(=O)NCc2cccc(F)c2)c2ccccc12 | – |

Continued, compound first:

| SMILES | IC50 [1] | Ki [3] | further results |
| --- | --- | --- | --- |
| COC(=O)c1ccc(-c2ccc(Cl)cc2)nc1C | 82.5 µM (inactive) | – | – |
| CNCCC1Sc2ccccc2Oc2ccccc21 (stereo not given) | – | – | AC50 [2]: > 20 µM (inactive) |
| CCCN(CCC)CCCNC(=O)c1cc2cc3ccc(OC)cc3nc2o1 | – | – | AC50 [4]: 15.8 µM (inconclusive); AC50 [5]: 31.6 µM (active); AC50 [6]: 20 µM (inconclusive); IC50 [7]: 45.9 µM (active); AC50 [8]: 20 µM (inconclusive) |
| O=C(C1=C(O)C(=O)N(CC2CCCO2)C1c1cccnc1)c1ccco1 (stereo not given) | – | 54.8 µM (inactive) | – |
| CCOc1cc(C(=O)NCc2nnc(SCC(=O)OC)n2C)cc(OCC)c1OCC | – | > 66.7 µM (inactive) | – |
| CCNCCC(=O)N1c2ccccc2Sc2ccc(C(F)(F)F)cc21 | – | – | AC50 [2]: > 20 µM (inactive) |
| CCc1nn2c(=O)cc(CSc3nc4sc5c(c4c(=O)n3C)CCCC5)nc2s1 | – | > 66.7 µM (inactive) | – |
| O=C(COc1ccccc1)N/N=C/c1sc(=O)n(Cc2cccc(C(=O)O)c2)c1Cl | – | – | AC50 [2]: > 20 µM (inactive) |
| Clc1ccccc1-c1nc(-c2ccncc2)no1 [PIFEXOLE] | 11.2 µM (active) and 18.8 µM (active) | – | AC50 [4]: 2 µM (inconclusive); AC50 [9]: 3.16 µM (inconclusive) |
